This note sets out measurements from US9809582B2, “Aminoester derivatives” (CHIESI FARMACEUTICI S.p.A., priority 2015, dated 2017).

Read-outs that look alike come from different tables or passages of the source.

The target in one assay is Human recombinant PDE4B2 (Homo sapiens (Human), UniProt Q07343). In words: PDE4B2 HTRF assay. The format is biochemical. The procedure: PDE4B2 activity is detected using the LANCE Ultra cAMP homogeneous time resolved fluorescence resonance energy transfer (TR-FRET) assay from Perkin Elmer. The assay is based on the competition between the europium (Eu) chelate-labeled cAMP tracer and sample cAMP for binding sites on cAMP-specific monoclonal antibodies (mAb) labelled with the ULight™ dye. The assay is carried out in 384-well low volume plates in a volume of 10 μl. Human recombinant PDE4B2 (80 pM) is incubated for 2 h with 3 nM cAMP in buffer containing 1×HBSS, 5 mM HEPES, 3 mM MgCl2, 0.1% BSA, pH 7.4 with or without test compounds. The enzymatic reactions are efficiently stopped by the addition of 500 μM IBMX present in the combined Stop/Detection buffer containing europium (Eu) chelate-labeled cAMP tracer and cAMP-specific monoclonal antibodies (mAb) labelled with the ULight™ dye. […] IC50 values are determined from competition curves using a non-linear curve fitting program.
(In general: Time-resolved FRET reads energy transfer from a long-lived donor to a nearby acceptor.)

For the next assay, the target named is Human M3 receptor (Homo sapiens (Human), UniProt P20309). The assay is described as follows: M3 receptor radioligand binding assay. The procedure: M3 Receptor Radioligand Binding Assay:
The assay is carried out in 96-well polypropylene plates in a volume of 250 μl. […] The final assay concentration of DMSO is 0.5% (v/v). The plates are sealed and incubated for 2 h at room temperature on an orbital shaker (slow speed). Membranes are harvested onto 96-well unifilter GF/C filter plates pre-treated with 0.5% polyethyleneimine (v/v), using a filter manifold, washed four times with […] of assay buffer. The plates are dried before addition of 50 μl of microscint-0, sealed then read in a Trilux Microbeta scintillation counter. IC50 values are determined from competition curves using a non-linear curve fitting program. Ki values are calculated from IC50 values by the Cheng and Prusoff equation.

The mark [1] stands for this setting: PDE4B2 HTRF assay, read-out: PDE4B2 IC50 Activity.
The mark [2] stands for this setting: M3 Receptor radioligand binding assay, read-out: M3 IC50 Activity.

Chain of Human M3 receptor (P20309 whole entry): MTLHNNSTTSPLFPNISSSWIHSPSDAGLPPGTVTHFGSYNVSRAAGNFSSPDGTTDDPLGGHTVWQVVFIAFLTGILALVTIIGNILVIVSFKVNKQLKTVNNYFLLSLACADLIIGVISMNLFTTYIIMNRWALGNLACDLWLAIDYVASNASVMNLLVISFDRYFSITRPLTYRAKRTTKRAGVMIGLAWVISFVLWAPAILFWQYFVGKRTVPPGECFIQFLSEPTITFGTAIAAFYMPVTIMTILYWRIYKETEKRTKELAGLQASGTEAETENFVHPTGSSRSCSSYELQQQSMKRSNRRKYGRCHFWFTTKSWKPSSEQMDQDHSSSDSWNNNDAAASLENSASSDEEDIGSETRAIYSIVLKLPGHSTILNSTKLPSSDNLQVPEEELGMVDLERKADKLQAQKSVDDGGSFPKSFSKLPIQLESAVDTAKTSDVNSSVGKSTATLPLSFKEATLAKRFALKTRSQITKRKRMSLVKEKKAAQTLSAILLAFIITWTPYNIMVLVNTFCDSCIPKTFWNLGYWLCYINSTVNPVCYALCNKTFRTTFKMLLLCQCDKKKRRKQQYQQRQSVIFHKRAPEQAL
Chain of Human recombinant PDE4B2 (Q07343 other isoform, or with tags, fused parts or gaps): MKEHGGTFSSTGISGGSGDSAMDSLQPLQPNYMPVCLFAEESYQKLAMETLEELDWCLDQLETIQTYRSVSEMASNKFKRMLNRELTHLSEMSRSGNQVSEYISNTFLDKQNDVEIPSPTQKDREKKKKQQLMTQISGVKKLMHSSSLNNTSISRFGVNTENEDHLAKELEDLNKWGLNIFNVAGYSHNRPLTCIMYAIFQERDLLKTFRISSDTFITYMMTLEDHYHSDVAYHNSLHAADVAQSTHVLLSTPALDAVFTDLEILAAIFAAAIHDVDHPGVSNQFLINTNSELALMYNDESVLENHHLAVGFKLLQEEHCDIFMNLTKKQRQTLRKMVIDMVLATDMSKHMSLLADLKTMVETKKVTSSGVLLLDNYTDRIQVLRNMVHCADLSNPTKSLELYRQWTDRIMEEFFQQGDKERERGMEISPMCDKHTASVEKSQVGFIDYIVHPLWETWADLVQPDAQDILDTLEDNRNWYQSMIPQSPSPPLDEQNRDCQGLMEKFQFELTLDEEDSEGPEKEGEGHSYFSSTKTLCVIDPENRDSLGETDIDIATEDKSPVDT

By IC50 is commonly meant the concentration that inhibits the measured activity by half. As to `COc1ccc([C@H](Cc2c(Cl)c[n+]([O-])cc2Cl)OC(=O)c2ccc(CNCC(C)(C(=O)OCCN(C)C)c3ccccc3)s2)cc1OC` (stereo partly drawn) [Example 29, [(1S)-2-(3,5-dichloro-1-oxido-pyridin-1-ium-4-yl)-1-(3,4-dimethoxyphenyl)ethyl] 5-[[[3-(2-dimethylaminoethyloxy)-2-methyl-3-oxo-2-phenyl-propyl]amino]methyl]thiophene-2-carboxylate], the 50% inhibitory concentration (IC50) fell in the range of 1 to 10 nM at Human recombinant PDE4B2 (setting [1]) and 10 to 100 nM at Human M3 receptor (setting [2]).
Take `COc1ccc([C@H](Cc2c(Cl)c[n+]([O-])cc2Cl)OC(=O)c2ccc(CNC3CC(C(=O)OC4CCN(C)CC4)(c4ccccc4)C3)s2)cc1OC` (single isomer, unassigned) [Example 35]: the IC50 on Human recombinant PDE4B2 (setting [1]) and at Human M3 receptor (setting [2]) was 1 to 10 nM in each case.
`COc1ccc([C@H](Cc2c(Cl)c[n+]([O-])cc2Cl)OC(=O)c2ccc(CNCC(C(=O)O[C@H]3CN4CCC3CC4)c3ccccc3)s2)cc1OC` (single isomer, unassigned) [Example 21]: the half-maximal inhibitory concentration (IC50) at Human recombinant PDE4B2 (read-out: PDE4B2 IC50 Activity) and on Human M3 receptor (M3 IC50 Activity) was 1 to 10 nM each time.
With `COc1ccc([C@H](Cc2c(Cl)c[n+]([O-])cc2Cl)OC(=O)c2ccc(CNC3CC(C(=O)O[C@H]4CN5CCC4CC5)(c4ccccc4)C3)s2)cc1OC` (stereo partly drawn) [Example 37, [(1S)-2-(3,5-dichloro-1-oxido-pyridin-1-ium-4-yl)-1-(3,4-dimethoxyphenyl)ethyl] 5-[[[3-phenyl-3-[(3R)-quinuclidin-3-yl]oxycarbonyl-cyclobutyl]amino]methyl]thiophene-2-carboxylate], the IC50 on Human recombinant PDE4B2 (read-out: PDE4B2 IC50 Activity) and at Human M3 receptor (read-out: M3 IC50 Activity) was 1 to 10 nM throughout.
`COc1ccc([C@H](Cc2c(Cl)c[n+]([O-])cc2Cl)OC(=O)c2ccc(CN3CC(C(=O)O[C@@H]4CCN(C)C4)(c4ccccc4)C3)s2)cc1OC` [Example 16, [(3R)-1-methylpyrrolidin-3-yl] 1-[[5-[(1S)-2-(3,5-dichloro-1-oxido-pyridin-1-ium-4-yl)-1-(3,4-dimethoxyphenyl)ethoxy]carbonyl-2-thienyl]methyl]-3-phenyl-azetidine-3-carboxylate]: the IC50 on Human recombinant PDE4B2 (setting [1]) and at Human M3 receptor (setting [2]) was 1 to 10 nM each time.
In the case of `COc1ccc([C@H](Cc2c(Cl)c[n+]([O-])cc2Cl)OC(=O)c2ccc(CNCC(C(=O)O[C@@H]3CCN(C)C3)c3ccccc3)s2)cc1OC` (stereo partly drawn) [Example 4, [(1S)-2-(3,5-dichloro-1-oxido-pyridin-1-ium-4-yl)-1-(3,4-dimethoxyphenyl)ethyl]-5-[[[3-[(3R)-1-methylpyrrolidin-3-yl]oxy-3-oxo-2-phenyl-propyl]amino]methyl]thiophene-2-carboxylate], the IC50 on Human recombinant PDE4B2 (setting [1]) was 1 to 10 nM; on Human M3 receptor (setting [2]), 10 to 100 nM.
On to `COc1ccc([C@H](Cc2c(Cl)c[n+]([O-])cc2Cl)OC(=O)c2ccc(CN(C)CC(C)(C(=O)O[C@H]3CN4CCC3CC4)c3ccccc3)s2)cc1OC` (stereo partly drawn) [Example 26, [(1S)-2-(3,5-dichloro-1-oxido-pyridin-1-ium-4-yl)-1-(3,4-dimethoxyphenyl)ethyl] 5-[[methyl-[2-methyl-3-oxo-2-phenyl-3-[(3R)-quinuclidin-3-yl]oxy-propyl]amino]methyl]thiophene-2-carboxylate], for which the IC50 at Human recombinant PDE4B2 (read-out: PDE4B2 IC50 Activity) and at Human M3 receptor (read-out: M3 IC50 Activity) was 1 to 10 nM throughout.
Turning to `COc1ccc([C@H](Cc2c(Cl)c[n+]([O-])cc2Cl)OC(=O)c2ccc(CCN3CCC(C(=O)O[C@H]4CN5CCC4CC5)(c4ccccc4)CC3)cc2)cc1OC` [Example 12, [(3R)-quinuclidin-3-yl]-1-[2-[4-[(1S)-2-(3,5-dichloro-1-oxido-pyridin-1-ium-4-yl)-1-(3,4-dimethoxyphenyl)ethoxy]carbonylphenyl]ethyl]-4-phenyl-piperidine-4-carboxylate], the half-maximal inhibitory concentration (IC50) on Human recombinant PDE4B2 and on Human M3 receptor (M3 IC50 Activity) was 1 to 10 nM in each case.
